In patent US20120129872A1, “FUSED HETEROARYL INHIBITORS OF PRO-MATRIX METALLOPROTEINASE ACTIVATION” (priority 2010, published 2012) one finds Kd and IC50 data, which are given here for 13 compounds.

Experiment [1] concerns the target T1, proMMP9(20-445;ΔFnII) (SEQ ID NO:6) (Homo sapiens, UniProt P14780, DEL216-390).
T1 construct: start methionine (N); made in house; host or cells: E. coli BL21(DE3) RIL
T1 sequence (P14780 with tags, fused parts or gaps DEL216-390): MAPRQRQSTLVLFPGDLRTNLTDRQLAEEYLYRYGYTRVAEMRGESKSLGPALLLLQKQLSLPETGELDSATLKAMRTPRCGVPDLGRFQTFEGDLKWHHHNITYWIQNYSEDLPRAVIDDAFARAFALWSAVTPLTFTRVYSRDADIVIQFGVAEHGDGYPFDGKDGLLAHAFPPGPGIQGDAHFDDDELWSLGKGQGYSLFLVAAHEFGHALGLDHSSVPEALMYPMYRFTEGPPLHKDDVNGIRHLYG
The experiment in a line: ThermoFluor binding assay with proMMP9(20-445;ΔFnII). As for the experimental part:
(§1) The ThermoFluor® (TF) assay is a 384-well plate-based binding assay that measures thermal stability of proteins (Biomol Screen 2001, 6, 429-40; Biochemistry 2005, 44, 5258-66). The experiments were carried out using instruments available from Johnson & Johnson Pharmaceutical Research & Development, LLC. TF dye used in all experiments was […] (1,8-ANS) (Invitrogen: A-47).
(§2) Compounds were arranged in a pre-dispensed plate (Greiner Bio-one: 781280), wherein compounds were serially diluted in 100% DMSO across 11 columns within a series. Columns 12 and 24 were used as DMSO reference and contained no compound. For multiple compound concentration-response experiments, the compound aliquots ([…]) were robotically predispensed directly into black 384-well polypropylene PCR microplates (Abgene: TF-0384/k) using a Cartesian Hummingbird liquid handler (DigiLab, Holliston, Mass.). Following compound dispense, protein and dye solutions were added to achieve the final assay volume of 3 μL. The assay solutions were overlayed with 1 μL of silicone oil (Fluka, type DC 200: 85411) to prevent evaporation.
(§3) Assay plates were robotically loaded onto a thermostatically controlled PCR-type thermal block and then heated from 40 to 90° C. at a ramp-rate of 1° C./min for all experiments. Fluorescence was measured by continuous illumination with UV light (Hamamatsu LC6) supplied via fiber optics and filtered through a band-pass filter (380-400 nm; >60D cutoff). Fluorescence emission of the entire 384-well plate was detected by measuring light intensity using a CCD camera (Sensys, Roper Scientific) filtered to detect 500±25 nm, resulting in simultaneous and independent readings of all 384 wells. A single image with 20-sec exposure time was collected at each temperature, and the sum of the pixel intensity in a given area of the assay plate was recorded vs temperature and fit to standard equations to yield the Tm (J Biomol Screen 2001, 6, 429-40).
(§4) Thermodynamic parameters necessary for fitting compound binding for each proMMP were estimated by differential scanning calorimetry (DSC) and from ThermoFluor® data. The heat capacity of unfolding for each protein was estimated from the molecular weight and from ThermoFluor® dosing data.
ThermoFluor® with proMMP9(20-445;ΔFnII (SEQ ID NO:6)
The protein sample preparations included a desalting buffer exchange step via a PD-10 gravity column (GE Healthcare). The desalting buffer exchange was performed prior to diluting the protein to the final assay concentration of 2.8 μM proMMP9(20-445;ΔFnII) (SEQ ID NO:6). The concentration of proMMP9(20-445;ΔFnII) (SEQ ID NO:6) was determined spectrophotometrically based on a calculated extinction coefficient of ε280=39880 M^−1 cm^−1, a calculated molecular weight of 28.2 kDa, and calculated pI of 5.5. ThermoFluor® reference conditions were define as follows: 80 μg/mL (2.8 μM) proMMP9(20-445;ΔFnII) (SEQ ID NO:6), 50 μM 1,8-ANS, pH 7.0 Buffer (50 mM HEPES pH 7.0, 100 mM NaCl, 0.001% Tween-20, 2.5 mM MgCl2, 300 μM CaCl2). The thermodynamic parameters for proMMP9(20-445;ΔFnII) (SEQ ID NO:6) are as follows: Tm (° C.)=72 (+/−0.1), ΔUH(Tm) (cal mol^−1)=160000(+/−5000), ΔUS(Tm) (cal mol^−1 K^−1)=434, ΔUCp (cal mol^−1 K^−1)=2400.
(In general: DSF heats the sample and reads unfolding from a dye or from intrinsic fluorescence.)

For experiment [2], the target named is T2, proMMP9(67-444;ΔFnII) (SEQ ID NO:5) (Homo sapiens, UniProt P14780, DEL216-390).
T2 construct: start methionine (N); made in house; host or cells: E. coli BL21(DE3) RIL
T2 sequence (P14780 with tags, fused parts or gaps DEL216-390): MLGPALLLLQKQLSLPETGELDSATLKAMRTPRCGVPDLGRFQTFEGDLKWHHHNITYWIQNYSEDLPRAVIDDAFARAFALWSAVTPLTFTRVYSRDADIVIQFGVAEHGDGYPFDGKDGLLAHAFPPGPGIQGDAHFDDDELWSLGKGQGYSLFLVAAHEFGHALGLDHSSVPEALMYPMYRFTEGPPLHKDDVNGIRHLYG
Nature of the experiment: ThermoFluor binding assay with proMMP9(67-444;ΔFnII). Here is the method: as §1, §2, §3, §4
ThermoFluor® with proMMP9(67-444;ΔFnII (SEQ ID NO:5)
The protein sample preparations had to include a desalting buffer exchange step via a PD-10 gravity column (GE Healthcare). The desalting buffer exchange was performed prior to diluting the protein to the final assay concentration of 3.5 μM proMMP9(67-444;ΔFnII) (SEQ ID NO:5). The concentration of proMMP9(67-444;ΔFnII) (SEQ ID NO:5) was determined spectrophotometrically based on a calculated extinction coefficient of ε280=33900 M^−1 cm^−1, a calculated molecular weight of 22.6 kDa, and calculated pI of 5.20. ThermoFluor® reference conditions were defined as follows: 80 μg/mL (3.5 μM) proMMP9(67-444;ΔFnII) (SEQ ID NO:5), 50 μM 1,8-ANS, pH 7.0 Buffer (50 mM HEPES pH 7.0, 100 mM NaCl, 0.001% Tween-20, 2.5 mM MgCl2, 300 μM CaCl2). The thermodynamic parameters for proMMP9(67-444;ΔFnII) (SEQ ID NO:5) are as follows: Tm (° C.)=63 (+/−0.1), ΔUH(Tm) (cal mol^−1)=105000(+/−5000), ΔUS(Tm) (cal mol^−1 K^−1)=450, ΔuCp (cal mol^−1 K^−1)=2000.

The target of experiment [3] is T3, proMMP13(1-268) (SEQ ID NO:7) (Homo sapiens, UniProt P45452).
T3 construct: 6×-histidine tag (C); made in house; host or cells: HEK293 (transient, secreted)
Nature of the experiment: ThermoFluor binding assay with proMMP13(1-268). Here is the method: as §1, §2, §3, §4
ThermoFluor® with proMMP13(1-268) (SEQ ID NO: 7)
The proMMP13(1-268) (SEQ ID NO:7) protein sample preparations included a desalting buffer exchange step via a PD-10 gravity column (GE Healthcare). The desalting buffer exchange was performed prior to diluting the protein to the final assay concentration of 3.5 μM. The concentration of proMMP13(1-268) (SEQ ID NO:7) was estimated spectrophotometrically based on a calculated extinction coefficient of ε280=37000 M^−1 cm^−1, a calculated molecular weight of 30.8 kDa, and calculated pI of 5.33. ThermoFluor® reference conditions were defined as follows: 100 μg/mL proMMP13(1-268) (SEQ ID NO:7), 25 μM 1,8-ANS, pH 7.0 Buffer (50 mM HEPES pH 7.0, 100 mM NaCl, 0.001% Tween-20, 2.5 mM MgCl2, 300 μM CaCl2). The thermodynamic parameters for proMMP13(1-268) (SEQ ID NO:7) are as follows: Tm (° C.)=67 (+/−0.1), ΔUH(Tm) (cal mol^−1)=107000(+/−5000), ΔUS(Tm) (cal mol^−1 K^−1)=318, ΔUCp (cal mol^−1 K^−1)=2600.

The target in experiment [4] is T4, full-length proMMP9(1-707) (SEQ ID NO:1), activation by catalytic MMP3 (Homo sapiens, UniProt P14780, R574P).
T4 construct: made in house; host or cells: HEK293 (transient, secreted)
T4 sequence (P14780 20-707 R574P): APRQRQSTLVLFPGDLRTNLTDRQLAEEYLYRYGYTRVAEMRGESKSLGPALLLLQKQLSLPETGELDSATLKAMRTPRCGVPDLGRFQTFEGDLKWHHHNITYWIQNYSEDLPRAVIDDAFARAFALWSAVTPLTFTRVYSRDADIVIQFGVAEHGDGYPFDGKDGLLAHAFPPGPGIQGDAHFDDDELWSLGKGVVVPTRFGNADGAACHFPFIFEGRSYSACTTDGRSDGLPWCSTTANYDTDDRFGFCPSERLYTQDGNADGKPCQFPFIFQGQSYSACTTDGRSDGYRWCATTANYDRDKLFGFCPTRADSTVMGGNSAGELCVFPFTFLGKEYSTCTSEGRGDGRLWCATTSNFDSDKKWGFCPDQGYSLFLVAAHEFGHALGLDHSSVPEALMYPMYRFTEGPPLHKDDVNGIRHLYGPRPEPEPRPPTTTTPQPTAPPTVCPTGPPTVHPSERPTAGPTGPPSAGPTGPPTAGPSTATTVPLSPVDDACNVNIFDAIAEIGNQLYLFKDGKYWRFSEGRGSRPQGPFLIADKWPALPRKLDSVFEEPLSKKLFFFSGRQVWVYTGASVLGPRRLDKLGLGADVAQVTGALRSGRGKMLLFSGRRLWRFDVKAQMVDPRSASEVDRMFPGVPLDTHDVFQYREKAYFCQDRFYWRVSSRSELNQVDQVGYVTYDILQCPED
The experiment in a line: proMMP9/MMP3 P126 Activation Assay. The experiment is classed as biochemical. As for the experimental part:
proMMP9/MMP3 P126 Activation Assay
The reaction volume was 50 μL. […] Reactivity of residual MMP3 towards P-126 substrate was minimal under these conditions.

Counter-ions that a name gives are not always drawn.

As a reminder, the Kd is a measure of binding affinity in units of concentration. In general, IC50 refers to the concentration needed to halve the response being measured. Read a high IC50 as lower potency. On to `Cc1ccn2c(-c3csc(Nc4cc(C(N)=O)ccc4OC(C)C)n3)c(C)nc2c1` [Example 7, 3-[4-(2,7-Dimethyl-imidazo[1,2-a]pyridin-3-yl)-thiazol-2-ylamino]-4-isopropoxy-benzamide], for which the Kd in experiment [1] turned out to be 1.5 µM; in experiment [2], 9.6 µM; in experiment [3], 1.2 µM. The same compound gave an IC50 in experiment [4] of 1.8 µM.

As for `CCOc1ccc(S(N)(=O)=O)cc1Nc1nc(-n2c(C)nc3ccccc32)cs1` [Example 5, 4-Ethoxy-3-[4-(2-methyl-benzoimidazol-1-yl)-thiazol-2-ylamino]-benzenesulfonamide], the Kd in experiment [1] worked out at 9.7 µM; in experiment [2], 16 µM; in experiment [3] it was 4.8 µM. Moreover, the IC50 in experiment [4] was 13.8 µM.

In the case of `CC(C)Oc1ccc(C(N)=O)cc1Nc1nc(-c2nc3ccccc3n2C)cs1` [Example 4, 4-Isopropoxy-3-[4-(1-methyl-1H-benzoimidazol-2-yl)-thiazol-2-ylamino]-benzamide•TFA], the Kd in experiment [1] is 16 µM; in experiment [2] it was 9.8 µM; in experiment [3], 13 µM. Moreover, in experiment [4], the IC50 is ~7 µM.

Turning to `Cc1nc2cc(-c3csc(Nc4cc(S(N)(=O)=O)ccc4OC(C)C)n3)ccc2n1C` [Example 23, 3-[4-(1,2-Dimethyl-1H-benzoimidazol-5-yl)-thiazol-2-ylamino]-4-isopropoxy-benzenesulfonamide•TFA], the Kd turned out to be 0.36 µM in experiment [1] and 1.1 µM in experiment [2]. This compound returned an IC50 in experiment [4] of 0.18 µM.

As to `CC(C)Oc1ccc(S(N)(=O)=O)cc1Nc1nc(-c2ccc3occc3c2)cs1` [Example 24, 3-(4-Benzofuran-5-yl-thiazol-2-ylamino)-4-isopropoxy-benzenesulfonamide•TFA], the Kd was 0.24 µM in experiment [1] and 0.67 µM in experiment [2]. Further, in experiment [4], it took 3.4 µM to reach half-maximal inhibition (IC50).

`CC(C)Cc1ccc(C(N)=O)cc1Nc1nc(-c2ccc3c(c2)ncn3C)cs1` [Example 2, 4-Isobutyl-3-[4-(1-methyl-1H-benzoimidazol-5-yl)-thiazol-2-ylamino]-benzamide•TFA]: the Kd in experiment [1] was 0.69 µM; in experiment [2] it was 6 µM. Moreover, the IC50 in experiment [4] was ~3 µM.

Regarding `CC(C)Oc1ccc(S(N)(=O)=O)cc1Nc1nc(-c2ccc3c(c2)nc(CO)n3C)cs1` [Example 29], the values for the Kd in experiment [1] and in experiment [2] were 0.1 µM and 0.66 µM, respectively. The same compound gave an IC50 in experiment [4] of 0.15 µM.

Regarding `CC(C)Oc1ccc(S(N)(=O)=O)cc1Nc1nc(-c2ccc3[nH]cnc3c2)cs1` [Example 21, 3-[4-(1H-Benzoimidazol-5-yl)-thiazol-2-ylamino]-4-isopropoxy-benzenesulfonamide•TFA], the Kd in experiment [1] came to 0.091 µM; in experiment [2], 1.4 µM. The IC50 in experiment [4] amounted to 0.32 µM.

Regarding `Cc1nc2cc(-c3csc(Nc4cc(S(N)(=O)=O)ccc4OC(C)C)n3)ccc2[nH]1` [Example 18, 4-Isopropoxy-3-[4-(2-methyl-1H-benzoimidazol-5-yl)-thiazol-2-ylamino]-benzenesulfonamide•TFA], the dissociation constant (Kd) in experiment [1] was found to be 0.14 µM; in experiment [2], 0.44 µM. Further, the IC50 in experiment [4] was determined as 0.36 µM.

Consider `CC(C)Oc1ccc(S(N)(=O)=O)cc1Nc1nc(-c2ccc3c(c2)ncn3C)cs1` [Example 9, 4-Isopropoxy-3-[4-(1-methyl-1H-benzoimidazol-5-yl)-thiazol-2-ylamino]-benzenesulfonamide•HCl], for which the Kd in experiment [1] is 0.26 µM; in experiment [2], 2 µM. The IC50 in experiment [4] was 0.15 µM.

As to `COc1ccc(S(N)(=O)=O)cc1Nc1nc(-c2ccc3c(c2)ncn3C)cs1` [Example 11, 4-Methoxy-3-[4-(1-methyl-1H-benzoimidazol-5-yl)-thiazol-2-ylamino]-benzenesulfonamide], the figures for the Kd in experiment [1] and in experiment [2] were 4.8 µM and 11 µM, respectively. Besides, in experiment [4], half-maximal inhibition (IC50) required 0.86 µM.

As to `Cc1c(-c2csc(Nc3cc(C(N)=O)ccc3OC(C)C)n2)sc2ccccc12` [Example 3, 4-Isopropoxy-3-[4-(3-methyl-benzo[b]thiophen-2-yl)-thiazol-2-ylamino]-benzamide•HBr], the Kd in experiment [1] stood at 1.2 µM; in experiment [2], 0.75 µM; in experiment [3], 1.9 µM. Also, the IC50 in experiment [4] stood at 2.5 µM.

On to `CC(C)Oc1ccc(C(N)=O)cc1Nc1nc(-c2ccc3c(cnn3C)c2)cs1` [Example 14, 4-Isopropoxy-3-[4-(1-methyl-1H-indazol-5-yl)-thiazol-2-ylamino]-benzamide•TFA], for which the Kd came out at 0.067 µM in experiment [1] and 0.67 µM in experiment [2]. The compound also yielded an IC50 in experiment [4] of 0.35 µM.
